In brackets after ≈: the same amount, converted by molar mass. Read-outs that look alike come from different tables or passages of the source. Starred links: 1 amine or outer side, 2 acyl side, 3 side chain; linkers in the order of their positions; H or OH if unused. Non-standard residues stand in square brackets, D forms with d. Residues, ends and D or L forms follow the SMILES beside them. Groups on a side chain read outwards from the residue. *: point of attachment. C20 diacid = O=C(O)CCCCCCCCCCCCCCCCCCC(=O)*; C18 diacid = O=C(O)CCCCCCCCCCCCCCCCC(=O)*; γGlu = O=C(O)[C@H](CCC(=O)[*:2])N[*:1]; AEEA = NCCOCCOCC(=O)O; Aib = CC(C)(N)C(=O)O
Columns and labels:
rat CRF2R α receptor = assay: cAMP agonism at rat CRF2R α receptor in A7R5 rat aortic smooth muscle cells (Example 8); type: cell-based; conditions: cAMP HTRF, A7R5 rat aortic smooth muscle cell line, 0% HSA
How it was run: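 Thawed cryopreserved A7R5 cells in HBSS/20 mM HEPES (0 or 0.1% HSA) with 2 mM IBMX, 2000 cells/well, were exposed to compound for 30 min at room temperature. cAMP was read by HTRF (665/620 nm ratio) after 1 h with lysis reagents. Activity was normalised to 1000 nM urocortin 2 as 100%, and EC50 was taken as the concentration giving 50% of maximal activation.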

CRF1R receptor = target: T1, CRF1R receptor (Homo sapiens, UniProt P34998); assay: cAMP activity at anti-target CRF1R, CRF1R-overexpression CHO cell line (Example 9); type: cell-based; conditions: for EC50: 0% HSA
T1 construct: host or cells: CHO-K1 clone 2
T1 sequence (P34998 24-415): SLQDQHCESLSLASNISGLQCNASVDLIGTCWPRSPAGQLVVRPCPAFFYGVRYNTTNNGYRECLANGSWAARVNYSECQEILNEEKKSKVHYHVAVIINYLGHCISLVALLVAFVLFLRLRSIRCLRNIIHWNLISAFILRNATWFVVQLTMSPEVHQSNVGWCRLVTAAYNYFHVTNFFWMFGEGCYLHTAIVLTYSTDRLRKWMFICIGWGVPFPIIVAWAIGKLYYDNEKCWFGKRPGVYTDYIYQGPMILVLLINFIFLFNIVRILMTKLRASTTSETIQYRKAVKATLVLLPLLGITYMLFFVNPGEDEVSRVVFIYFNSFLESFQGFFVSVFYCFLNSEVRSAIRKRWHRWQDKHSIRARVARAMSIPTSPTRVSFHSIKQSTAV
How it was run: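 cAMP accumulation was read by HTRF after 30 min at room temperature of compound treatment. Cells were cryopreserved CHO cells overexpressing CRF1R, plated at 2000/well in IBMX (2 mM)-containing HBSS/HEPES buffer with 0 or 0.1% HSA. Activity was normalized to 1000 nM UCN2 as 100%.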

human CRF2α receptor = target: T2, human CRF2α receptor (Homo sapiens, UniProt Q13324); assay: cAMP agonism at human CRF2 α receptor in TeloHEAC cells (Example 7); type: cell-based; conditions: cAMP HTRF, TeloHEAC cells stably expressing human CRF2 α, 0% HSA; read-out: EC50 [nM], 0% HSA
T2 construct: expressed in transfected cells; host or cells: TeloHEAC
T2 sequence (Q13324 1-411): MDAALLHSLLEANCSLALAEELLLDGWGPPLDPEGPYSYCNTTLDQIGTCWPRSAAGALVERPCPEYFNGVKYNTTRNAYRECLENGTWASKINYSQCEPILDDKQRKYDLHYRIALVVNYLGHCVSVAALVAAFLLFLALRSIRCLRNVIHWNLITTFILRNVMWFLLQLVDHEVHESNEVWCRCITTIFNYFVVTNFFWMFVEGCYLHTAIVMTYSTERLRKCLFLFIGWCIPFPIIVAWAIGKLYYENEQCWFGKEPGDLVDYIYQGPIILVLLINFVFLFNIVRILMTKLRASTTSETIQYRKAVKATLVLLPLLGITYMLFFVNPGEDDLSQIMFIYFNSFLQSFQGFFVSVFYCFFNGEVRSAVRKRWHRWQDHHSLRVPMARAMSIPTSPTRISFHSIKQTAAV
How it was run: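 Percent activation was referenced to 1000 nM UCN2 (100%), and EC50 values taken as concentrations giving half of maximal response. The read-out was a homogeneous time-resolved fluorescence cAMP kit, fluorescence ratio 665/620 nm. Thawed cells (2000/well) saw compound for 30 min at RT in buffer with 2 mM IBMX and 0%/0.1% HSA.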

[1] = Solubility in buffer systems by UPLC-UV (Example 13); type: physicochemical
How it was run: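 The supernatant was diluted 1:10 and quantified by UPLC-UV peak area against a reference standard curve, correcting for sequence-based extinction coefficients.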

[2] = CRF1R-overexpression CHO cell line
[3] = CRF1R-overexpression CHO cell line, read-out: Emax (%)
[4] = pH 4.5, Solubility in Buffer B [mg/ml]
[5] = pH 7.4, Solubility in Buffer C [mg/ml]

EC50 (rat CRF2R α receptor) [nM]	EC50 (human CRF2α receptor) [nM]	EC50 (CRF1R receptor; [2]) [nM]	Emax (CRF1R receptor; [3]) [%]	solubility at 1 h [1, 4] [µg/mL]	solubility at 1 h [1, 5] [µg/mL]	SMILES	Emax (CRF1R receptor; CHO) [%]	solubility at 1 h ([1]; Buffer B: 100 mM acetate buffer, pH 4.5, 2.7 mg/ml m-cresol, target 10 mg/ml, read-out: Solubility in Buffer B) [µg/mL]	solubility at 1 h ([1]; Buffer C: 100 mM phosphate buffer, pH 7.4, target 10 mg/ml, read-out: Solubility in Buffer C) [µg/mL]
0.94	0.38	> 1000	3.31	> 10600	> 9500	CC[C@H](C)[C@H](NC(=O)[C@H](CCC(N)=O)NC(=O)[C@H](CCCCNC(=O)COCCOCCNC(=O)COCCOCCNC(=O)CC[C@H](NC(=O)CCCCCCCCCCCCCCCCCCC(=O)O)C(=O)O)NC(=O)[C@@H](NC(=O)[C@H](CCCCN)NC(=O)[C@@H](NC(=O)[C@@H]1CCCN1C(=O)[C@@H](NC(=O)[C@H](CC(=O)O)NC(=O)[C@H](CC(C)C)NC(=O)[C@H](CO)NC(=O)[C@H](CC(C)C)NC(=O)[C@@H](NC(=O)[C@@H](N)Cc1ccccc1)[C@@H](C)O)C(C)C)[C@@H](C)O)[C@@H](C)CC)C(=O)N[C@@H](CC(C)C)C(=O)N[C@@H](CC(C)C)C(=O)N[C@@H](CCCCN)C(=O)N[C@@H](CCC(N)=O)C(=O)N[C@@H](CCC(N)=O)C(=O)N[C@@H](CCCCN)C(=O)N[C@@H](CCC(N)=O)C(=O)N[C@@H](CCCCN)C(=O)N[C@@H](CCCCN)C(=O)N[C@@H](CCC(=O)O)C(=O)N[C@@H](CCCNC(=N)N)C(=O)N[C@@H](CCC(N)=O)C(=O)N[C@@H](CCC(N)=O)C(=O)N[C@@H](C)C(=O)N[C@@H](CCC(=O)O)C(=O)N[C@H](C(=O)N[C@@H](CC(N)=O)C(=O)N[C@@H](CCCCN)C(=O)N[C@@H](CCC(N)=O)C(=O)N[C@@H](CC(C)C)C(=O)N[C@@H](CC(C)C)C(=O)N[C@@H](CCC(=O)O)C(=O)N[C@@H](CCCNC(=N)N)C(=O)N[C@H](C(N)=O)C(C)C)[C@@H](C)O [compound 61] (H-FTLSLDVPTKIK([AEEA-AEEA-γGlu-C20 diacid])QILLKQQKQKKERQQAETNKQLLERV-NH2)	–	–	–
0.66	0.57	> 1000	9.18	6800 (≈ 1320 µM)	7500 (≈ 1450 µM)	CC[C@H](C)[C@H](N)C(=O)N[C@H](C(=O)N[C@@H](CC(C)C)C(=O)N[C@@H](CO)C(=O)N[C@@H](CC(C)C)C(=O)N[C@@H](CC(=O)O)C(=O)N[C@H](C(=O)N1CCC[C@H]1C(=O)N[C@H](C(=O)N[C@@H](CCCCN)C(=O)N[C@@H](CC(C)C)C(=O)N[C@@H](CCCCNC(=O)COCCOCCNC(=O)COCCOCCNC(=O)CC[C@H](NC(=O)CCCCCCCCCCCCCCCCC(=O)O)C(=O)O)C(=O)N[C@@H](CCC(N)=O)C(=O)N[C@H](C(=O)N[C@@H](CC(C)C)C(=O)N[C@@H](CC(C)C)C(=O)N[C@@H](CCC(=O)O)C(=O)N[C@@H](CCC(N)=O)C(=O)N[C@@H](CCC(=O)O)C(=O)N[C@@H](CCCCN)C(=O)N[C@@H](CCC(N)=O)C(=O)N[C@@H](CCCCN)C(=O)N[C@@H](CCCCN)C(=O)N[C@@H](CCC(N)=O)C(=O)N[C@@H](CCCNC(=N)N)C(=O)N[C@@H](CCC(=O)O)C(=O)N[C@@H](CCC(N)=O)C(=O)N[C@@H](C)C(=O)N[C@@H](CCC(=O)O)C(=O)N[C@H](C(=O)N[C@@H](CC(N)=O)C(=O)N[C@@H](CCCCN)C(=O)N[C@@H](CCC(N)=O)C(=O)N[C@H](C(=O)N[C@@H](CC(C)C)C(=O)N[C@@H](C)C(=O)N[C@@H](CCC(N)=O)C(=O)N[C@H](C(N)=O)C(C)C)[C@@H](C)CC)[C@@H](C)O)[C@@H](C)CC)[C@@H](C)CC)C(C)C)C(C)C [compound 67] (H-IVLSLDVPIKLK([AEEA-AEEA-γGlu-C18 diacid])QILLEQEKQKKQREQAETNKQILAQV-NH2; N-terminus assumed)	–	–	–
3.99	0.46	> 1000	8.74	18900 (≈ 3700 µM)	> 8800	CC[C@H](C)[C@H](N)C(=O)N[C@H](C(=O)N[C@@H](CC(C)C)C(=O)N[C@@H](CO)C(=O)N[C@@H](CC(C)C)C(=O)N[C@@H](CC(=O)O)C(=O)N[C@H](C(=O)N1CCC[C@H]1C(=O)N[C@H](C(=O)N[C@@H](CCCCN)C(=O)N[C@@H](CC(C)C)C(=O)N[C@@H](CCCCNC(=O)COCCOCCNC(=O)COCCOCCNC(=O)CC[C@H](NC(=O)CCCCCCCCCCCCCCCCC(=O)O)C(=O)O)C(=O)N[C@@H](CCC(N)=O)C(=O)N[C@H](C(=O)N[C@@H](CC(C)C)C(=O)N[C@@H](CC(C)C)C(=O)N[C@@H](CCC(=O)O)C(=O)N[C@@H](CCC(N)=O)C(=O)N[C@@H](CCC(=O)O)C(=O)N[C@@H](CCCCN)C(=O)N[C@@H](CCC(N)=O)C(=O)N[C@@H](CCCCN)C(=O)NC(C)(C)C(=O)N[C@@H](CCC(N)=O)C(=O)N[C@@H](CCCNC(=N)N)C(=O)N[C@@H](CCC(=O)O)C(=O)N[C@@H](CCC(N)=O)C(=O)N[C@@H](C)C(=O)N[C@@H](CCC(=O)O)C(=O)N[C@H](C(=O)N[C@@H](CC(N)=O)C(=O)N[C@@H](CCCCN)C(=O)N[C@@H](CCC(N)=O)C(=O)N[C@H](C(=O)N[C@@H](CC(C)C)C(=O)N[C@@H](C)C(=O)N[C@@H](CCC(N)=O)C(=O)N[C@H](C(N)=O)C(C)C)[C@@H](C)CC)[C@@H](C)O)[C@@H](C)CC)[C@@H](C)CC)C(C)C)C(C)C [compound 79] (H-IVLSLDVPIKLK([AEEA-AEEA-γGlu-C18 diacid])QILLEQEKQK[Aib]QREQAETNKQILAQV-NH2; N-terminus assumed)	–	–	–

SMILES	EC50 (rat CRF2R α receptor) [nM]	EC50 (human CRF2α receptor) [nM]	EC50 (CRF1R receptor; [2]) [nM]	Emax (CRF1R receptor; [3]) [%]	solubility at 1 h [1, 4] [µg/mL]	solubility at 1 h [1, 5] [µg/mL]	Emax (CRF1R receptor; CHO) [%]	solubility at 1 h ([1]; Buffer B: 100 mM acetate buffer, pH 4.5, 2.7 mg/ml m-cresol, target 10 mg/ml, read-out: Solubility in Buffer B) [µg/mL]	solubility at 1 h ([1]; Buffer C: 100 mM phosphate buffer, pH 7.4, target 10 mg/ml, read-out: Solubility in Buffer C) [µg/mL]
CC[C@H](C)[C@H](NC(=O)[C@H](CCC(N)=O)NC(=O)[C@H](CCC(=O)O)NC(=O)[C@H](CC(C)C)NC(=O)[C@H](CC(C)C)NC(=O)[C@H](CCC(N)=O)NC(=O)[C@H](CCCCN)NC(=O)[C@H](CC(N)=O)NC(=O)[C@H](CCCCN)NC(=O)[C@H](CCC(=O)O)NC(=O)[C@H](C)NC(=O)[C@H](CCC(N)=O)NC(=O)[C@H](CCC(N)=O)NC(=O)[C@H](CCCNC(=N)N)NC(=O)[C@H](CCC(=O)O)NC(=O)[C@H](CCCCN)NC(=O)[C@H](CCCCN)NC(=O)[C@H](CCC(N)=O)NC(=O)[C@H](CCCCN)NC(=O)[C@H](CCC(N)=O)NC(=O)[C@H](CCC(N)=O)NC(=O)[C@H](CCCCN)NC(=O)[C@H](Cc1ccccc1)NC(=O)[C@H](CC(C)C)NC(=O)[C@@H](NC(=O)[C@H](CCC(N)=O)NC(=O)[C@H](CCCCNC(=O)COCCOCCNC(=O)COCCOCCNC(=O)CC[C@H](NC(=O)CCCCCCCCCCCCCCCCCCC(=O)O)C(=O)O)NC(=O)[C@@H](NC(=O)[C@H](CCCCN)NC(=O)[C@@H](NC(=O)[C@@H]1CCCN1C(=O)[C@@H](NC(=O)[C@H](CC(=O)O)NC(=O)[C@H](CC(C)C)NC(=O)[C@H](CO)NC(=O)[C@H](CC(C)C)NC(=O)[C@@H](NC(=O)[C@@H](N)Cc1ccccc1)[C@@H](C)O)C(C)C)[C@@H](C)O)[C@@H](C)CC)[C@@H](C)CC)C(N)=O [compound 58] (H-FTLSLDVPTKIK([AEEA-AEEA-γGlu-C20 diacid])QILFKQQKQKKERQQAEKNKQLLEQI-NH2; N-terminus assumed)	0.72	0.28	–	–	–	–	9.12	> 9500	> 9400

Reference: patent US12679878B2, “CRF2 receptor agonists and their use in therapy” (SANOFI, priority 2020, dated 2026)
